Results reported in patent US12583834B2, “Method of treating bacterial infections and pharmaceutical composition for treating bacterial infections” (Institut National de Recherche pour l'Agriculture, …, priority 2020, dated 2026).
“Also recorded” adds a separate entry of the source.

How the values were obtained:
Mfd from E. coli = Mfd from E. coli (Escherichia coli, UniProt P30958); assay: Inhibition of Mfd ATPase activity in vitro (BIOMOL Green phosphate release); type: biochemical; conditions: for relative inhibition of E. coli Mfd ATPase activity with respect to the vehicle (DMSO): 100 μM compound, ATP 0.035 mM and 0.070 mM, FIG. 1
Method: Mfd enzyme activity was evaluated by measuring the quantity of inorganic phosphate (PO4i) released using BIOMOL® Green reagent microtiter-plate assay (Enzo Life Sciences). Mfd from E. coli (0.35 μM) was incubated with DMSO or with the tested compounds at a concentration of 100 μM in DMSO, for 10 min at 37° C. ATPase reaction was measured in Tris pH8 0.05M; NaCl 0.3M; DTT 0.002M; MgCl2 0.0025M; DMSO 2%; containing ATP (at different concentrations between 0.0022 and 0.279 mM) for 30 min at 37° C. 50 μL of each reaction medium was transferred into clear, flat-bottom 96-well plates and the reaction was terminated by the addition of 100 μl of BIOMOL® Green reagent. The absorbance at 620 nm was measured in a microplate reader (Tecan). The absorbance values were then transformed into nmols of PO4i released based on a PO4i standard curve prepared as recommended by the supplier.
The potency of each compound is calculated relative to the vehicle DMSO control. Each point is the mean of duplicate experiments of N=2+/−SEM (Standard error of the Mean).
Mfd ATPase activity at ATP concentrations ranging from 0 to 0.279 mM was measured in the same conditions as described above, without and with presence of various doses of compound (Ia): 0 μM, 3 μM, 10 μM, 30 μM, 65 μM and 100 μM. Curves were fit to the Michaelis-Menten equation with the GraphPad PRISM software. Results are the mean of duplicate experiment of N=3-10+/−SEM.

Bacillus cereus (Bc 407) = assay: Survival of silkworm larvae infected with B. cereus; type: in vivo; conditions: Bombyx mori larvae, B. cereus 1×10^2 CFU, 0.3 to 5.5 μg/g injected with the bacteria, 24 h at 27° C.; FIG. 6
[1] = test system: K. pneumoniae (CIP700603); assay: Antimicrobial activity during nitric oxide stress, K. pneumoniae; type: cell-based, Klebsiella pneumoniae; conditions: 4 h at 37° C. under nitric oxide stress, 10 to 200 μM, FIG. 4
Method: (§1) The power of compound (Ia) to inhibit bacterial growth, specifically in the presence of in vitro-produced nitric oxide, is measured for different bacterial species: Bacillus cereus and two antibiotherapy challenging bacteria, regarding medical interest and therapeutic needs, namely Klebsiella pneumoniae and Acinetobacter baumannii.
(§2) Gram-positive B. cereus (Bc 407) and Gram-negative K. pneumoniae (CIP700603) and A. baumannii (CIP7034) strains were grown to exponential phase in Luria-Bertani (LB) medium. Bacteria solution were prepared in Roswell Park Memorial Institute (RPMI) medium and 150 μL were dispatched into 96-wells plate. To measure effect of compound (Ia), bacteria were exposed to 50 μL of NO at a concentration that induces a survival below 90% compared to the condition without NO, in absence (0 μM) or presence (at a dose ranging from 10 to 200 μM) of compound (Ia).
(§3) Bacteria survival rate was quantified after 4 h at 37° C. by normalizing bacterial load in (Ia)-treated samples against that in DMSO-treated samples (0 μM of (Ia)).
(§4) The results obtained are shown in FIG. 3 for B. cereus, in FIG. 4 for K. pneumoniae and in FIG. 5 for A. baumanii. In these bar graphs the data represent the mean of duplicate experiment of N=3/12+/−SEM. Two-tailed t-student tests are employed to investigate statistical differences, using GraphPad Prism.

Bombyx mori larvae = assay: Toxicity towards silkworm larvae; type: in vivo; conditions: 0.3 to 5.5 μg/g injected
[2] = test system: Pseudomonas aeruginosa (CIP27853); assay: Survival of silkworm larvae infected with P. aeruginosa; type: in vivo; conditions: Bombyx mori larvae, P. aeruginosa 1×10^4 CFU, 0.3 to 5.5 μg/g injected with the bacteria, 24 h at 27° C.; effect at higher doses; FIG. 7
B. cereus (Bc 407) [3] = assay: Mouse systemic infection model, B. cereus bacterial load in organs; type: in vivo, C57BL/6JRj mice; conditions: mice, B. cereus 4×10^6 CFU i.p., 12 mg/kg i.p., 6 h after infection; lung, liver and spleen; FIG. 8
Method: The efficiency of the compound of the invention (Ia) against a bacterial pathogen was assessed in a mouse model of infection (systemic infection model). Eight weeks old female C57BL/6JRj (Janvier Labs) mice were infected with B. cereus (Bc 407) (4×10^6 CFU) by intraperitoneal injection (100 μL). 100 μl of compound of the invention (Ia) in DMSO at a dose of 12 mg/kg, or of the vehicle alone (DMSO), were further injected to the mice by intraperitoneal injection. 6 h after the infection mice were sacrificed by cervical dislocation. Mice organs were collected and homogenized in cold Phosphate Buffered Saline (PBS). Bacteria burdens in organs were determined by plating serially dilution of the homogenate on LB agar media. The results obtained are shown on FIG. 8 in a/ for the lung, in b/ for the liver and in c/ for the spleen. In these figures, the data are represented as mean+/−SEM from 3 different experiments with 6-8 mice per group. Each point represents one animal.

B. cereus (Bc 407) [4] = assay: Antimicrobial activity during nitric oxide stress, B. cereus; type: cell-based, Bacillus cereus; conditions: 4 h at 37° C. under nitric oxide stress, 10 to 200 μM, FIG. 3
Method: as §1, §2, §3, §4

A. baumannii (CIP7034) = assay: Antimicrobial activity during nitric oxide stress, A. baumannii; type: cell-based, Acinetobacter baumannii; conditions: A. baumanii, 4 h at 37° C. under nitric oxide stress, 10 to 200 μM; FIG. 5
Method: as §1, §2, §3, §4

Chain of Mfd from E. coli (P30958 whole entry): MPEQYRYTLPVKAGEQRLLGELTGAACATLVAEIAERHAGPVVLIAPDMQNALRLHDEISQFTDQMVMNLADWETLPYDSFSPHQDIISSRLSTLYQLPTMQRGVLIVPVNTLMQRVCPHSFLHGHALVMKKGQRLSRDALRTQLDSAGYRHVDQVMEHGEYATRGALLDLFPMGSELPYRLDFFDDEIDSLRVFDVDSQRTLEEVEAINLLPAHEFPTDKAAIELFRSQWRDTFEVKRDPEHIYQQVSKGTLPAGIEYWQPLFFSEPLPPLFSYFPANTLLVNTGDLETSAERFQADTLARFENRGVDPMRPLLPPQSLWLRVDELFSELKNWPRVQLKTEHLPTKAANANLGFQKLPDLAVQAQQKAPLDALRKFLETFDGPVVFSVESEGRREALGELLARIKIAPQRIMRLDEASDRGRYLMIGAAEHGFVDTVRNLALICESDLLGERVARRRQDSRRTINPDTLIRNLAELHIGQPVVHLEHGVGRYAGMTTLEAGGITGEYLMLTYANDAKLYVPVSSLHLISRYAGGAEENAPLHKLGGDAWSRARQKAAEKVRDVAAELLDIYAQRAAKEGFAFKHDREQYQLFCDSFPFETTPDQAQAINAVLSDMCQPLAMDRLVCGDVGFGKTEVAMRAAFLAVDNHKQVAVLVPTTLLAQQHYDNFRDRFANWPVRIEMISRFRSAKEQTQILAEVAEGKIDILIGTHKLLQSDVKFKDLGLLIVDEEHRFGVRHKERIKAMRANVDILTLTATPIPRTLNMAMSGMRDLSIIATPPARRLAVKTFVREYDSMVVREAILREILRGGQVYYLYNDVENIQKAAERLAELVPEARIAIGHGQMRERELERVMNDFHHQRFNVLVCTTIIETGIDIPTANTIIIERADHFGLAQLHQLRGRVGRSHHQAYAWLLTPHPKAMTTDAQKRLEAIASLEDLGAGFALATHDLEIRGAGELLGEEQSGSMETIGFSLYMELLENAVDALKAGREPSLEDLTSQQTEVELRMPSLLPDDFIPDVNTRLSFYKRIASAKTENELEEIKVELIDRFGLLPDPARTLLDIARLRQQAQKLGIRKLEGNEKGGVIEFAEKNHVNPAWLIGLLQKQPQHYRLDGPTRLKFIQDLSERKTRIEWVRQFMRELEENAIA

## O=c1[nH]c2ccccc2n1C1CCN(c2ccc(S(=O)(=O)N3CCCCC3)cn2)CC1 [compound (Ib)]
Mfd from E. coli
  relative inhibition of E. coli Mfd ATPase activity with respect to the vehicle (DMSO): much higher capacity of inhibition of the Mfd ATPase activity than the comparative compounds

## CN(C)S(=O)(=O)c1ccc(S(=O)(=O)N2CCC(n3c(=O)[nH]c4ccccc43)CC2)cc1 [compound (Ia), N,N-dimethyl-4-{[4-(2-oxo-2,3-dihydro-1H-1,3-benzodiazol-1-yl)piperidin-1-yl]sulfonyl}benzene-1-sulfonamide]
Bacillus cereus (Bc 407)
  survival of infected larvae (protective effect): significant protective effect
[1]
  bacteria survival / resistance to NO in vitro: reduces bacteria resistance to NO in vitro
Bombyx mori larvae
  toxicity towards the insects: no toxicity towards the insects
Mfd from E. coli; 0-100 μM (Ia), ATP 0 to 0.279 mM, Michaelis-Menten fit, FIG. 2
  mode of inhibition of Mfd ATPase activity: competitive inhibitor of Mfd ATPase activity
Mfd from E. coli
  relative inhibition of E. coli Mfd ATPase activity with respect to the vehicle (DMSO): much higher capacity of inhibition of the Mfd ATPase activity than the comparative compounds; also recorded: more efficient than compound (Ib)
[2]
  survival of infected larvae (protective effect): significant protective effect
B. cereus (Bc 407) [3]
  bacterial load in organs: decreases the bacterial load in all these organs
B. cereus (Bc 407) [4]
  bacteria survival / resistance to NO in vitro: reduces bacteria resistance to NO in vitro
A. baumannii (CIP7034)
  bacteria survival / resistance to NO in vitro: reduces bacteria resistance to NO in vitro
